Experimental data: US5047431A, “1,1,2-triphenylbut-1-ene derivatives” (Klinge Pharma GmbH & Co., priority 1980, dated 1991)
Entries after “also recorded” stand apart in the source; their conditions may differ.

Tests used:
[1] = background art; cited from earlier work
[2] = molecular target: T1, estradiol receptor (Oryctolagus cuniculus, UniProt G1SML6); assay: Binding affinity to the estradiol receptor (displacement of [3H]-estradiol from uterus cytosol); set-up: species or system rabbit (New Zealand rabbits); conditions: uterus cytosol of prepuberal rabbits, 18 hours at 4° C., 2.5×10^-9 M [3H]-estradiol; read-out: ED50% (concentration of the substance which replaces 50% [3H]-estradiol from the estradiol receptor)
T1 construct: The uterus cytosol of female, prepuberal white rabbits; from tissue; host or cells: uterus cytosol of female prepuberal New Zealand white rabbits
T1 sequence (G1SML6 1-598): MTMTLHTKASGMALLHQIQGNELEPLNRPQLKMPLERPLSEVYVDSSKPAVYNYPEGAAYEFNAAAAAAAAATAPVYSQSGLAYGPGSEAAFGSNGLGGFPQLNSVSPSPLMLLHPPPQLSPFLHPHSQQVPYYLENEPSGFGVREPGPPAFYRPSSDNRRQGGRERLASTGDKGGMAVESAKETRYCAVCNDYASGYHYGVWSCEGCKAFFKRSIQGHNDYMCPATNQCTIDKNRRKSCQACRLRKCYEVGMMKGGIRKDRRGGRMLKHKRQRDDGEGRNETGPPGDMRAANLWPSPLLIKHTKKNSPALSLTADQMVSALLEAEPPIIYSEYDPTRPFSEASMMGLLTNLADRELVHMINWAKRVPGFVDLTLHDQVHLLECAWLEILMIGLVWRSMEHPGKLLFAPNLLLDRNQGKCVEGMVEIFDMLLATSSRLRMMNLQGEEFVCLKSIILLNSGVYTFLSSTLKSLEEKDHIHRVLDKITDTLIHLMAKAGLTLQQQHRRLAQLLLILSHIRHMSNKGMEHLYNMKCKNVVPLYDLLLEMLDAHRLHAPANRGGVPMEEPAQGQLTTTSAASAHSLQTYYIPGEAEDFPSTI
Description: The determination of the binding affinity to the estradiol receptor was made using rabbit uterus cytosol.
The binding affinity to the estradiol receptor was measured according to the method of N. Devleeschouwer, G. Leclercq, A. Danguy and J.C. Heuson [Europ.
H]-estradiol from the estradiol receptor.

[3] = test system: 7,12-dimethylbenz(a)anthracene-induced mammary tumor; assay: Inhibitory effect on the 7,12-dimethylbenz(a)anthracene-induced mammary tumor; format: in vivo, female Sprague-Dawley rat (Hanover breed); conditions: compared with tamoxifen under the same test conditions
Description: Twice weekly and on the 28th day of testing the number of animals was determined and the tumor surface (mm^2 /animal) of the therapy animals and control animals was measured. At the end of testing, the percentage increase of the average tumor surface of the treated animals was determined in comparison to the control animals, the surface of the latter being taken as 100%.

[4] = test system: hormone-dependent mammary; conditions: background art; cited from earlier work

| SMILES | anti-estrogenic activity (in words) [1] | IC50 [2] [nM] | inhibitory activity on the mammary tumor (in words) [3] | therapy of hormone-dependent mammary tumors (in words) [4] |
| --- | --- | --- | --- | --- |
| CC/C(=C(\c1ccc(O)cc1)c1ccc(OCCN(C)C)cc1)c1ccccc1 [4-hydroxytamoxifen] | antiestrogenic effect comparable to tamoxifen | – | – | – |
| CC/C(=C(/c1ccc(OCCN(C)C)cc1)c1cccc(O)c1)c1ccccc1 [Compound 1, (E)-1-[4'-(2-Dimethylaminoethoxy)phenyl]-1-(3-hydroxyphenyl)-2-phenylbut-1-ene] | – | 24 | above the activity of tamoxifen; also recorded: clearly superior to tamoxifen in the inhibitory activity on the tumor | – |
| CC/C(=C(/c1ccc(OCCN(CC)CC)cc1)c1cccc(O)c1)c1ccccc1 [Compound 2, (E)-1-[4'-(2-Diethylaminoethoy)phenyl]-1-(3'-hydroxyphenyl)-2-phenylbut-1-ene] | – | 65 | – | – |
| CC/C(=C(/c1ccc(OCCNC)cc1)c1cccc(O)c1)c1ccccc1 [Compound 3, (E)-1-(3'-Hydroxyphenyl)-1-[4'-(2-methylaminoethoxy)phenyl]-2-phenylbut-1-ene] | – | 37 | – | – |
| CC/C(=C(\c1ccccc1)c1ccc(OCCN(C)C)cc1)c1ccccc1 [Tamoxifen, (Z)-1-[4'-(2-dimethylaminoethoxy)phenyl]-1,2-diphenylbut-1-ene] | marked anti-estrogenic activity | – | – | already proved successful in the therapy of hormone-dependent mammary |
